For one assay, the system named is P. aeruginosa. Nature of the assay: 48 h biofilm formation assay in catheter tubing. Type of assay: cell-based, Pseudomonas aeruginosa (ATCC 27853). How it is done: For post-fabrication functionalization of the inner lumen of allyl-TPU catheter tubing with Qx-SH reagents, 0.5 mL of an Ar purged solution containing Qx-SH (10.0 mM) and LAP (5.0 mM) was flowed through 25.0 cm segments of catheter tubing every 7.5 min for the duration of a 30 min pre-soak and 30 min UV treatment (or absence of UV for phys. ads. control). Following treatment, the catheter tubes were rinsed continuously for 30 s with DI water (3×), then rinsed continuously for 30 s with 10% EtOH (3×). All samples were blown dry with N2 and placed under vacuum for 24 h before X-ray photoelectron spectroscopy (XPS) analysis or ethylene oxide (EtO) sterilization.
(§1) For antimicrobial testing, blade-coated samples and catheter tubing of allyl-TPU were sterilized by EtO sterilization using an Anprolene benchtop sterilizer (Anderson Products, Inc., Haw River, N.C.) following the manufacturer's protocol to deliver approximately 0.5 cc·L^−1 of EtO gas over a 12 h sterilization cycle at 35% humidity and room temperature, followed by a 48 h purge under vacuum. The bacterial strains used in this study included Staphylococcus epidermidis (ATCC 12228), Staphylococcus aureus (25923), Escherichia coli (ATCC 25922), Pseudomonas aeruginosa (ATCC 27853), Enterococcus faecalis (ATCC 29212), and methicillin-resistant Staphylococcus aureus (MRSA) (ATCC BAA-41).
Biofilm formation was analyzed using overnight cultures of P. aeruginosa grown in TSB and adjusted to an OD600=0.10. An assembly of catheter tubing was prepared using aseptic techniques, and included COOK™ BEACON™ TIP TORCON NB™ Advantage catheter segments (25.0 cm in length) denoted as “CC” and numbered 1-4 from upstream (1) to downstream (4). The catheter assembly was connected using 18 gauge blunt tip stainless steel needles (˜25 mm in length) sterilized in 100% EtOH. CC segments were located before, after, and in between the untreated, phys. ads., and UV-treated allyl-TPU catheter segments modified with Q8-SH to account for any downstream influence of the experimental catheters. With a peristaltic pump flowing at 1.5 mL·min^−1, fresh bacterial inoculum was continuously streamed through the catheter assembly for 2 h, followed by FAB medium (0.10 mM CaCl2, 0.01 mM Fe-EDTA, 0.15 mM (NH4)2SO4, 0.33 mM Na2HPO4, 0.20 mM KH2PO4, 0.50 mM NaCl, 0.50% (wt/vol) casamino acids, 1.0 mM MgCl2, and 10 mM sodium citrate) for 48 h. Samples were fixed with 50 mL of a 4% paraformaldehyde solution, rinsed with 200 mL of PBS, and submerged in PBS for further testing.
Photographs of the catheter tubing were taken using a camera with a 16-megapixel Sony Exmor RS IMX240 sensor and […] lens. Catheter cross-sections were cut (ca. 2.5 mm in length) from each catheter segment, rinsed thoroughly with DI water, and lyophilized for 24 h for scanning electron microscopy (SEM) analysis. SEM was performed on gold sputter-coated samples using a JEOL-7401 Field Emission Scanning Electron Microscope (JEOL USA, Inc., Peabody, Mass.) at an accelerating voltage of 2.0 kV under 45× and 300× magnification. In addition, lyophilized cross-sections (3.0 mm in length) from randomly selected locations along each catheter segment were placed vertically on a glass slide and imaged under brightfield microscope at 4× magnification. Using Olympus VS-Desktop software, the % biofilm blockage was determined by measuring the inner luminal area of untreated catheters compared to the area of the biofilm on the interior of the contaminated catheters (Equation 1).
[formula] Results are reported as averages with standard deviations (n=3) for each catheter segment.

The test system of the next assay is MRSA. Nature of the assay: Contact-killing assay (adapted from ISO 22196) on allyl-TPU blade-coated samples modified with Qx-SH. Type of assay: cell-based. As to conditions: n = 1, negative control polypropylene 1.51 × 10^5. How it is done: (§2) To functionalize the allyl-TPU blade-coated samples with Qx-SH reagents, thiol-ene reactions were performed using the same procedure described for rhodamine-SH. Briefly, blade-coated films of allyl-TPU (250 μm thick, 2.0 cm diameter, ca. 110 mg, 20 μmol allyl) were submerged in 2 mL of an Ar purged (30 min) aqueous solution containing Qx-SH (10.0 mM) and LAP (5.0 mM), and allowed to pre-soak for 30 min under Ar. UV-treated samples were irradiated for 30 min (λ=365 nm, I=1.2 mW·cm^−2) while phys. ads. samples were kept in the absence of UV light for 30 min to control for any antimicrobial activity that is contributed by non-covalently attached QAC. Following treatment, the dye/photoinitiator solutions were drawn up and discarded, and the samples were rinsed with 5 mL of DI water (3×) then submerged in 5 mL of DI water. The samples were further rinsed with 10% EtOH (3×) and soaked in 10% EtOH for 15 min (3×), rinsing with 10% EtOH in between each soak.
as §1
(§3) The contact-killing assay was performed on physically adsorbed (phys. ads.), and UV-treated blade-coated samples modified with a series of Qx-SH reagents using a method adapted from ISO 22196. See, International Organization for Standardization. Measurement of antibacterial activity on plastics and other non porous surfaces (ISO 22196:2011), the disclosure of which is incorporated herein by reference in its entirety. Briefly, the samples were inoculated with same day cultures of select bacteria (e.g. E. coli, S. epidermidis) in dilute nutrient media (0.2% tryptic soy broth (TSB) in 1× phosphate buffered saline (PBS)) at approximately 150 colony-forming units (CFU)·mm^−2. Generally, 35 uL of 8.5×10^5 CFU/mL cultures were dispersed across the surface of the sample using sterile polypropylene cover films (area=198 mm^2). Inoculated samples were incubated in a humidified room air incubator (36° C., ca. 80% rel. humidity) for 20 h. Following incubation, surviving cells were recovered from the samples using vigorous agitation (i.e. vortexing for 20 s in PBS). Surviving cells were enumerated via 10-fold series dilution and plating 100 μL onto tryptic soy agar (TSA), incubating overnight and then plate counting CFU. The mean CFU recovered per sample (CFU/sample) were calculated by accounting for dilutions. Internal controls samples of polypropylene and chlorhexidine treated with polypropylene were included in the assay.

In the next assay the test system is S. epidermidis. The description is as above. The class given is cell-based, Staphylococcus epidermidis (ATCC 12228). As to conditions: n = 2, negative control polypropylene 0.93 (±0.03) × 10^5. How it is done: as §2, §1, §3
[1] abbreviates: UV-treated allyl-TPU catheter, 48 h.
[2] abbreviates: phys. ads. allyl-TPU catheter, 48 h.

Molecules are shown by their SMILES.

For the compound `CCCCCCCC[N+](C)(C)CCCCCCCCOC(=O)CCS.[Cl-]` [Q8-SH], the “biofilm formation compared to Cook catheter, untreated and phys. ads. controls (in words)” value with P. aeruginosa (UV-treated allyl-TPU catheter tubing, brightfield microscopy and SEM) is “more resistant to biofilm formation and less”. For the same compound, the “% biofilm blockage (internal volume occlusion)” value in the assay with P. aeruginosa (UV-treated allyl-TPU catheter, inner lumen modified, 48 h, n=3) was “ca. 15%”. Further, the “reduction of biofilm blockage from CC1” value with P. aeruginosa (setting [1]) is recorded as 85%; in the assay on P. aeruginosa (setting [2]) it was 77%. The “reduction of biofilm blockage from the untreated control” value is listed as 69% in the assay with P. aeruginosa (setting [1]) and 53% in the assay with P. aeruginosa (setting [2]). Moreover, the “Mean CFU/Sample Recovered, MRSA” value in the assay on MRSA (UV-treated samples) and with MRSA (phys. ads. samples) was 0.00 CFU/Sample in each case. Further, the “Mean CFU/Sample Recovered, S.epidermidis” value with S. epidermidis (UV-treated samples) and in the assay on S. epidermidis (phys. ads. samples) was 0.00 ± 0.00 CFU/Sample in each case.

For the origin of these results see US11155668B2, “Contact-killing, QAC functionalized thermoplastic polyurethane for catheter applications” (THE UNIVERSITY OF AKRON, priority 2017, dated 2021).
